In ChEMBL document CHEMBL1201862, “PubChem BioAssay data set” (2004):
Activity calls are given as the source filed them.

Legend:
[1] = molecular target: T1, fMet-Leu-Phe receptor (Homo sapiens, UniProt P21462); assay: formyl peptide receptor binders – dose response (AID 519); assay type: functional
T1 sequence (P21462 whole entry): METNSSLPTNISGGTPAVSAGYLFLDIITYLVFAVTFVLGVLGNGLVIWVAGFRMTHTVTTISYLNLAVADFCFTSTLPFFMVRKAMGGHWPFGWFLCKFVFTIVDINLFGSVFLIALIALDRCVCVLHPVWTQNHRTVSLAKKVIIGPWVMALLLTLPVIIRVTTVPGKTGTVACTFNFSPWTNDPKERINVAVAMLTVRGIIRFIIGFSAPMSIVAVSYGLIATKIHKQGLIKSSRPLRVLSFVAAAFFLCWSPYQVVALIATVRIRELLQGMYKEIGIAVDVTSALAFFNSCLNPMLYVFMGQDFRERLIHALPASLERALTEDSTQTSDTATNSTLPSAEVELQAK

[2] = blockers of HIV-1 envelope-mediated cell-cell fusion – cherry-pick, dose response (AID 652057); assay type: functional, cell-based
[3] = blockers of HIV-1 ZM109 envelope-driven cell-cell fusion – HeLa effector, CEM target cells, luciferase, cherry-pick, dose response (AID 652058); assay type: functional, cell-based;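 note: luciferase signal from HIV-1 Env mediated cell-cell fusion of effector and target cells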
[4] = off-target signal loss in HeLa-CEM21 co-culture – HeLa F-luc CTL cells, cherry-picked, counter-screen for HIV-1 Env fusion inhibitor project, dose response (AID 652040); assay type: functional, cell-based;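 note: potency for signal decrease marking cytotoxic or nonspecific inhibition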
[5] = HIV-1 AD8 envelope cell-cell fusion blockers – cherry-pick, dose response (AID 652062); assay type: functional, cell-based;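 note: luciferase signal from cell-cell fusion driven by HIV-1 clade B AD8 Env; potency is for inhibitors of fusion seen as a drop in luminescence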
[6] = molecular target: T2, Protein skinhead-1 (Caenorhabditis elegans, UniProt P34707); assay type: functional
T2 sequence (P34707 whole entry): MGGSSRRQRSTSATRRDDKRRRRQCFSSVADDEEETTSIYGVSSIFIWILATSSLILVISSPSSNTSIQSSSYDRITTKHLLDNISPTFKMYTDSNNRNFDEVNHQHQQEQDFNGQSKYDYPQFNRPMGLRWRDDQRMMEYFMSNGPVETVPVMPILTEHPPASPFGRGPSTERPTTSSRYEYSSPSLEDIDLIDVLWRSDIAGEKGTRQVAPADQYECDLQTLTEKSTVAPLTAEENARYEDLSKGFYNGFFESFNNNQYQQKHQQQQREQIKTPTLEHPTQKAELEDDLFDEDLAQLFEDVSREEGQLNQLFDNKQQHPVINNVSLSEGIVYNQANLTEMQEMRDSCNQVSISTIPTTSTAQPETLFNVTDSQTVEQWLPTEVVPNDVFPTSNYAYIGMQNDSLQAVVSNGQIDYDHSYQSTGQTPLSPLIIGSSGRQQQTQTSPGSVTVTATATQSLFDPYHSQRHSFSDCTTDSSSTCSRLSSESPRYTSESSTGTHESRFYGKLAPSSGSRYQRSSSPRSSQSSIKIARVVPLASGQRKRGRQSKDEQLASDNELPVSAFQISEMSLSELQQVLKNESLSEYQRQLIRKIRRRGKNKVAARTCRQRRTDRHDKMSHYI

[7] = molecular target: Beta-galactosidase (Escherichia coli, UniProt Q8VNN2); assay: Dose response counterscreen for EBI2 assay utilizing the enzyme, b-galactosidase.; assay type: functional
[8] = molecular target: Luciferin 4-monooxygenase (Photinus pyralis, UniProt P08659); assay: inhibition of purified Photinus pyralis luciferase – biochemical, luminescence, dose response (AID 1891)
[9] = Luminescence Cell-Based Dose Confirmation HTS to Identify Inhibitors of Platelet Dense Granule Release. [Related pubchem assays: 1663 (Primary HTS), 1678 (Summary of Project)]; assay type: functional
[10] = cells; assay type: functional, cell-based
[11] = molecular target: T3, Nuclear receptor subfamily 0 group B member 1 (Homo sapiens, UniProt P51843); assay type: functional, cell-based;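 note: HEK293T cells transfected with SF-1 and DAX-1 plus StAR promoter luciferase reporter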
T3 sequence (P51843 whole entry): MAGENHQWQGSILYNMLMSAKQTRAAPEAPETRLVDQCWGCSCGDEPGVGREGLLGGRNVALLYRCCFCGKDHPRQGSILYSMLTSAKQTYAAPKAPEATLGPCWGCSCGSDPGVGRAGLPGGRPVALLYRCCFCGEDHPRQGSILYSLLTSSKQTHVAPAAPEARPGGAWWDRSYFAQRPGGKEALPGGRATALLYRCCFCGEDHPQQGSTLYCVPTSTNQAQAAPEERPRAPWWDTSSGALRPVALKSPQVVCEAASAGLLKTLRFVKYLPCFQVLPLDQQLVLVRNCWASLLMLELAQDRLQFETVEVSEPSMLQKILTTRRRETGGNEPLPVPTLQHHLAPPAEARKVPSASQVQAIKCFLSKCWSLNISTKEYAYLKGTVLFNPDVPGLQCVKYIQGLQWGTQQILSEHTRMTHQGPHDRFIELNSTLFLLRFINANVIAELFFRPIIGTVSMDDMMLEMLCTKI

[12] = molecular target: T4, DNA repair and recombination protein RAD54-like (Homo sapiens, UniProt Q92698); assay: RAD54 Holliday junction migration blockers – biochemical, fluorescence, cherry-picked samples, dose series, confirmation (AID 651657); assay type: functional
T4 sequence (Q92698 whole entry): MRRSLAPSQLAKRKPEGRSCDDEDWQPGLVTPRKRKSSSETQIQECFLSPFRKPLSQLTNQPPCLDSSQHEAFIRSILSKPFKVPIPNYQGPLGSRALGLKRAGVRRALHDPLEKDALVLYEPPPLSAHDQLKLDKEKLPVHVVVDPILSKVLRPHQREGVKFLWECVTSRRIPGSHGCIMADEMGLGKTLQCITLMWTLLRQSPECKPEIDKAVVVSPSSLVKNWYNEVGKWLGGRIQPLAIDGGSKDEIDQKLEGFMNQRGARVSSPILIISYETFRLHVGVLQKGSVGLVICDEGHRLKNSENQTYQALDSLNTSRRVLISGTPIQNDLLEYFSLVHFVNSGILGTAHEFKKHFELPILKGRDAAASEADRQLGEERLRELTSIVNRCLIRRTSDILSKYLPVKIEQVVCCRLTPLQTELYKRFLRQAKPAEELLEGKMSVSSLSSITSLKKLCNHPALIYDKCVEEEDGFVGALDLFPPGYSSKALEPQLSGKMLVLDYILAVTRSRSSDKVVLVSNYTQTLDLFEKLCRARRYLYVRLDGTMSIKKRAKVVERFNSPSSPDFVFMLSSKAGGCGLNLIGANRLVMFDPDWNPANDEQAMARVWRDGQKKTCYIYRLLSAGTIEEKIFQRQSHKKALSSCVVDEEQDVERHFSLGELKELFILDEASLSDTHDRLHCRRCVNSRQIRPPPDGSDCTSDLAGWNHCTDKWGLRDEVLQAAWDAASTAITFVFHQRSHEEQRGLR

[13] = molecular target: T5, DNA repair protein RAD52 homolog (Homo sapiens, UniProt P43351); assay type: functional, biochemical
T5 sequence (P43351 whole entry): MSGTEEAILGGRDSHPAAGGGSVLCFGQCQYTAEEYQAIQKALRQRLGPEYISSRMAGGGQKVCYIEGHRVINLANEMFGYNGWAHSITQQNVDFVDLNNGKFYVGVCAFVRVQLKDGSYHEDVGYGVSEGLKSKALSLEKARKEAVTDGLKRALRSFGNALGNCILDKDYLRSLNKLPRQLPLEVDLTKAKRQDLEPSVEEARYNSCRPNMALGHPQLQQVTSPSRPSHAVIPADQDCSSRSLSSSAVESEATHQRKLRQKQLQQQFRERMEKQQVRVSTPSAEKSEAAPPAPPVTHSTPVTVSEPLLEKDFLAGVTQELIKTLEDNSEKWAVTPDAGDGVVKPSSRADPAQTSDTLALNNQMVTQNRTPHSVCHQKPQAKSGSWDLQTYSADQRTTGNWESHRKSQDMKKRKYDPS

[14] = tested on: HEK293; assay: EBV LMP1 TES2 canonical NF-kB signalling blockers – cell-based, HEK293, luciferase, cherry-pick, dose response (AID 588343); assay type: functional; conditions: Homo sapiens
[15] = reduction of Shn3 3'UTR-driven luciferase in osteoblasts – cell-based, Clone20 osteoblasts, firefly luciferase, cherry-picked, dose response (AID 624132); assay type: functional;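 note: firefly luciferase luminescence from reporter carrying the Shn3 3'UTR in osteoblasts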
[16] = non-specific 3'UTR reporter inhibition in Clone20-Shn3RL – cell-based, Renilla luciferase, cherry-picked, counter-screen for Shn3 inhibitor project, dose response (AID 624133); assay type: functional
[17] = molecular target: Paired box protein Pax-8 (Homo sapiens, UniProt Q06710); assay: PAX8 transcriptional activity inhibition in RMG-I – RMG-I cells, luciferase, cherry-pick, dose response (AID 687027); assay type: functional, cell-based;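 note: luciferase reporter driven by Pax8 target thyroperoxidase promoter measured by SteadyGlo luminescence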
[18] = Trypanosoma cruzi growth suppression in host cells – NIH3T3 host cells, beta-gal luminescence, confirmation (AID 2044); assay type: functional, cell-based;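 note: intracellular parasites grown in NIH/3T3 mouse fibroblasts as host cells; luminescent beta-galactosidase reporter signal from transgenic T. cruzi replicating inside host cells; inhibitors lower the luminescence signal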
[19] = NIH3T3 cell viability loss – ATP luminescence, mouse fibroblasts, counter-screen, dose response (AID 2010); assay type: functional, cell-based;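 note: cells exposed to compound for about 90 hours before reading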
[20] = NIH-3T3 fibroblast cytotoxicity, dose response, cytotoxicity control, cell-based, fluorescence, Alamar Blue, secondary assay (AID 2327); assay type: functional;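 note: NIH-3T3 mouse fibroblasts cultured with fluconazole at 8 µg/mL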
[21] = fluconazole-exposed Candida albicans growth modulators – fluorescence, retest, confirmation (AID 2467); assay type: functional, cell-based
[22] = molecular target: Dual specificity tyrosine-phosphorylation-regulated kinase 1A (Rattus norvegicus, UniProt Q63470); assay type: biochemical, Homo sapiens
[23] = viability loss in CEM21 cells – cell-based, CellTiter-Glo luminescence, cherry-picked, cytotoxicity control for viral fusion inhibitor project, dose response (AID 652042); assay type: functional;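 note: potency for signal decrease meaning cytotoxicity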
[24] = tested on: HEK293; assay: cells; conditions: Homo sapiens
[25] = tested on: HEK293; assay: cells; conditions: Homo sapiens; remark: listed apart in the source
[26] = molecular target: T6, Cytochrome P450 1A2 (Homo sapiens, UniProt P05177);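 note: PubChem cytochrome P450 panel assay, CYP1A2 panel member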
T6 sequence (P05177 whole entry): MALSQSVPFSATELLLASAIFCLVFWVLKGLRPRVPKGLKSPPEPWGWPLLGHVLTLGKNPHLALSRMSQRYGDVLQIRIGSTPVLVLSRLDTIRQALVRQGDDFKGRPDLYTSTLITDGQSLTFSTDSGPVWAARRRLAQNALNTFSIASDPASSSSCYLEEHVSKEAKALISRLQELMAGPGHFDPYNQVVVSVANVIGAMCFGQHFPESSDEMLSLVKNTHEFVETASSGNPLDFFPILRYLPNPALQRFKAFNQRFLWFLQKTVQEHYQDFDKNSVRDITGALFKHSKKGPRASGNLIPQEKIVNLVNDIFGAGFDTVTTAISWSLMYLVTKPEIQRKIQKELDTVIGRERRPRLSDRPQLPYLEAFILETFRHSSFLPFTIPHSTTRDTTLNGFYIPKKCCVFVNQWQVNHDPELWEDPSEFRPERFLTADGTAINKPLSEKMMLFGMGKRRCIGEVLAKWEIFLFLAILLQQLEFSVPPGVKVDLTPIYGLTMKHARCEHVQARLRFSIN

Sequence of Beta-galactosidase (Q8VNN2 whole entry): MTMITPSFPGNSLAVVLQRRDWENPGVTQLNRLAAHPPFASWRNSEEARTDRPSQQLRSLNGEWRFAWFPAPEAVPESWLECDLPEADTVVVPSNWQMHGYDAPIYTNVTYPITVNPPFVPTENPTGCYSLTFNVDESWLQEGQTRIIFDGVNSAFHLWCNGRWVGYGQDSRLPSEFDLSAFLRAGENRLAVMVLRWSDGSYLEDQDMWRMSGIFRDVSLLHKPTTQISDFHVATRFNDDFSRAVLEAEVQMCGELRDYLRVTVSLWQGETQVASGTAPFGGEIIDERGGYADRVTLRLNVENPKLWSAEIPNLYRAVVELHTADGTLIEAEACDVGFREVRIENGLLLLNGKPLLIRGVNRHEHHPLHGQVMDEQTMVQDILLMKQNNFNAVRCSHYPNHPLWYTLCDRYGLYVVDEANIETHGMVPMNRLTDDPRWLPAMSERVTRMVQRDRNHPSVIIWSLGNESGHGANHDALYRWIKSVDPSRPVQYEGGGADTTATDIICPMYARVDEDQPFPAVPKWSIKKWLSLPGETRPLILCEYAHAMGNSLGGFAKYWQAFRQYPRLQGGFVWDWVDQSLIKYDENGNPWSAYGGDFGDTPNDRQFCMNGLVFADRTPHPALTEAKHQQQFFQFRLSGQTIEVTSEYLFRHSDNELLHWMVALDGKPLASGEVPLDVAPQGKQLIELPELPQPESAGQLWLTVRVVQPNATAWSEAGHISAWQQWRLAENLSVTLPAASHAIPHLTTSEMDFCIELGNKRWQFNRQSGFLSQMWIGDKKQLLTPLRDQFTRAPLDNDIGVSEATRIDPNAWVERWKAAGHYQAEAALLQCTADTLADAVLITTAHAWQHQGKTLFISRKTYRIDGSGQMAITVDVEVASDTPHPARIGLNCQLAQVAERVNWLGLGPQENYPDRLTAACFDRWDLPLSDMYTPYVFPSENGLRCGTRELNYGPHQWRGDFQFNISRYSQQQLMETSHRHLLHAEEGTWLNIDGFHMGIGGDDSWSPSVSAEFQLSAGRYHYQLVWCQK
Sequence of Luciferin 4-monooxygenase (P08659 whole entry): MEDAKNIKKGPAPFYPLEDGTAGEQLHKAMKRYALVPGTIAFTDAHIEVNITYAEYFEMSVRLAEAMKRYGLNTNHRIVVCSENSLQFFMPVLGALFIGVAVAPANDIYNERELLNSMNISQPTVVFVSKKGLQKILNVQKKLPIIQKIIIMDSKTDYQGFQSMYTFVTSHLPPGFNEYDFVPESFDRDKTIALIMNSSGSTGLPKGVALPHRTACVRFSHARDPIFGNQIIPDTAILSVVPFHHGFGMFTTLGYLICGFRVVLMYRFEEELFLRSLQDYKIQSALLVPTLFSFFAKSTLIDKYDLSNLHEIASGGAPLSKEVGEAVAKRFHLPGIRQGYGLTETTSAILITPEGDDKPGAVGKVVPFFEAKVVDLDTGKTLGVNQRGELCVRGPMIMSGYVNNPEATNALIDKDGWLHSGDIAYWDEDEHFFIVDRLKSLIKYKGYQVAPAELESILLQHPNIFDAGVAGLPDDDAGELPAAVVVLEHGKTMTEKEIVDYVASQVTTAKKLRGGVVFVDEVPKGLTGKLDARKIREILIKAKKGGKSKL
Sequence of Paired box protein Pax-8 (Q06710 whole entry): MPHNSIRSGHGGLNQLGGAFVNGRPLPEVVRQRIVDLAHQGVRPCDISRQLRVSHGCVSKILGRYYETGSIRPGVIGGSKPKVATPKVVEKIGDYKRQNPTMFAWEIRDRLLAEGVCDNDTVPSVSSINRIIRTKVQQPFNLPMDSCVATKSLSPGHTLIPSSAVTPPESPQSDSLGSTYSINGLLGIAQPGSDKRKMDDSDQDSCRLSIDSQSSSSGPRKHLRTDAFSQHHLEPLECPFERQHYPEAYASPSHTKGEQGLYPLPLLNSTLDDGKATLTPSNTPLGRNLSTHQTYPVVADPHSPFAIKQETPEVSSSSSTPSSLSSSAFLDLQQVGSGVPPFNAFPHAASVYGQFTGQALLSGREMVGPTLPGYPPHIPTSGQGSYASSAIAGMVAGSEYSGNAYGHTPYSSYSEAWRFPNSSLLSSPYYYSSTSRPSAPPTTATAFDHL

## COCCN1C(=O)C(O)=C(C(=O)c2cccs2)C1c1ccccc1 (stereo not drawn)
[1]
  Ki: > 66.7 µM (inactive)

## COc1ccc(S(=O)(=O)N2CCCCC2)cc1NC(=O)Cc1sc(C)nc1-c1ccc(F)cc1
[2]
  AC50: 0.863 µM (active)
[3]
  AC50: 2.59 µM (active)
[4]
  AC50: 2.18 µM (active)
[5]
  AC50: 6.25 µM (active)

## NC(=O)C1CCCN(C(=O)NC2CCCCC2)C1 (stereo not drawn)
[6]
  IC50: > 100 µM (inactive)

## O=C(c1ccc(-n2cnnn2)cc1)N1CCN(C(c2ccccc2)c2ccccc2)CC1
[7]
  IC50: > 80 µM (inactive)

## O=C(/C=C\Nc1ccc2c(c1)OCO2)c1cccs1
[8]
  EC50: 0.912 µM (active)
[9]
  EC50: 6.14 µM (active)
[10]
  IC50: > 67.5 µM (inactive)
[11]
  IC50: > 67.5 µM (inactive)

## Cc1ccc(/C=C/c2ccc3cccc(O)c3n2)s1
[6]
  IC50: > 100 µM (inactive)

## Clc1ccc(-c2csc(-c3ccncc3)n2)cc1
[6]
  IC50: 4.45 µM (active)

## CCN1CCN(C(S)=Nc2ccc3nc(N4CCN(C)CC4)cc(C)c3c2)CC1
[12]
  AC50: 91.2 µM (active)
[13]
  AC50: 4.49 µM (active)

## COc1ccccc1-n1cc([C@@H]2C[C@H]3CN(c4ccccc4)C(=O)[C@]34CCCN24)cn1
[14]
  AC50: 19 µM (active)
[15]
  AC50: 1.46 µM (active)
[16]
  AC50: 1.8 µM (active)
[6]
  IC50: > 100 µM (inactive)
[17]
  AC50: 5.21 µM (active)

## O=C(CCS(=O)(=O)c1ccccc1)N(CCCN1CCOCC1)c1nc2ccc(F)cc2s1
[18]
  EC50: 2.06 µM (active)
[19]
  EC50: 6.18 µM (active)
[10]
  IC50: > 67.5 µM (inactive)
[11]
  IC50: > 67.5 µM (inactive)

## c1ccc2sc(NN=C3CCCCCC3)nc2c1
[20]
  EC50: > 150 µM (inactive)
[21]
  EC50: > 38 µM (not active)
[22]
  AC50: 3.89 µM (active)
[10]
  IC50: > 67.5 µM (inactive)
[11]
  IC50: > 0.278 µM (active)

## O=C(CN1CCCCC1)n1c2ccccc2c2ccccc21
[12]
  AC50: 12.1 µM (active)
[13]
  AC50: 5.64 µM (active)

## CCN(CC(O)c1cccc(O)c1)C(=O)C12CC3CC(CC(C3)C1)C2 (stereo not drawn)
[2]
  AC50: 0.33 µM (active)
[23]
  AC50: 46.4 µM (active)
[3]
  AC50: 0.415 µM (active)
[4]
  AC50: 0.619 µM (active)
[5]
  AC50: 3 µM (active)

## O=C(COc1ccc(Br)cc1)N1CCN(C2CCCC2)CC1
[7]
  IC50: > 80 µM (inactive)

## COc1cccc(Nc2nc(C(N)CCc3ccccc3)cs2)n1 (stereo not drawn)
[2]
  AC50: 1.96 µM (active)
[23]
  AC50: 17.1 µM (active)
[3]
  AC50: 3.98 µM (active)
[4]
  AC50: 3.37 µM (active)
[5]
  AC50: 3.36 µM (active)
[24]
  EC50: > 59.6 µM (inactive)
[25]
  EC50: > 59.6 µM (inactive)

## COc1cccc(OC)c1/C(O)=C(\C#N)c1nc2ccccc2[nH]1
[1]
  Ki: > 66.7 µM (inactive)
[26]
  AC50: 12.6 µM (inconclusive)

## CC(C)(C)c1nnc(N/N=C/c2ccc(Br)cc2)n(N)c1=O
[7]
  IC50: > 80 µM (inactive)

## N[C@@H](Cc1ccc(O)c(I)c1)C(=O)O [IOTYROSINE]
[1]
  Ki: > 66.7 µM (inactive)
